Assays:
[1] = test system: dengue virus type 2; assay: Functional assay to measure dose dependent changes in antiviral-drug inhibitory efficacy against Dengue virus type 2 New Guinea C in Vero E6 miRFP670 cells (cotreated with P-gp inhibitor, CP100356). Cells are treated with antiviral candidates that are serially diluted, following infection, cells are fixed. EC50 is reported via analysis of fluorescence intensity using high-content imager. The …; assay type: organism-based, Chlorocebus sabaeus, Vero C1008; conditions: for EC90: P-gp concentration 500 nM, P-gp inhibitor CP100356
[2] = test system: Zika virus; assay: Functional CPE-based assay to measure dose dependent changes in antiviral-drug inhibitory efficacy against Zika virus MR766 in Vero E6 miRFP670 cells (cotreated with P-gp inhibitor, CP100356). Cells are treated with antiviral candidates that are serially diluted. EC50 is reported via analysis of MTS assay as a readout of CPE. The assay has been performed by KU Leuven.; assay type: organism-based, Chlorocebus sabaeus, Vero C1008; conditions: Zika virus; for EC90: P-gp concentration 500 nM, P-gp inhibitor CP100356

O=C(O)Cc1c[nH]c2cc(-c3cc(Cl)cc(NC(=O)OCc4ccccc4)c3)ccc12
EC50 ([1]; Dengue virus, Vero C1008): 28.1 µM
EC90 ([1]; Dengue virus, Vero C1008, Baseline response 0 %, Hill slope -3.369, Maximum measured 96.537 %, Maximum response 100 %, Minimum measured 12.115 %, R squared 0.802): > 50 µM
EC50 ([2]; Vero C1008): > 50 µM
EC90 ([2]; Vero C1008, Baseline response 0 %, Hill slope 0.295, Maximum measured 15.391 %, Maximum response 100 %, Minimum measured 1.73 %, R squared 0.19): > 50 µM

O=C(Nc1cc(Cl)cc(-c2cnn(Cc3ccc(C(=O)O)cc3)c2)c1)OCc1ccccc1
EC50 ([1]; Dengue virus, Vero C1008): 25 µM
EC90 ([1]; Dengue virus, Vero C1008, Baseline response 0 %, Hill slope -21.178, Maximum measured 148.823 %, Maximum response 100 %, Minimum measured 10.822 %, R squared 0.564): 27.8 µM
EC50 ([2]; Vero C1008): > 50 µM
EC90 ([2]; Vero C1008, Baseline response 0 %, Hill slope 1.126, Maximum measured 43.56 %, Maximum response 100 %, Minimum measured -3.769 %, R squared 0.488): > 50 µM

FC(F)(F)Oc1cc(Cl)cc2c(Cc3ccc(-c4nnn[nH]4)cc3)c[nH]c12
EC50 ([1]; Dengue virus, Vero C1008): 11.9 µM
EC90 ([1]; Dengue virus, Vero C1008, Baseline response 0 %, Hill slope -33.999, Maximum measured 142.465 %, Maximum response 100 %, Minimum measured 16.781 %, R squared 0.605): > 12.5 µM
EC50 ([2]; Vero C1008): 20.6 µM
EC90 ([2]; Vero C1008, Baseline response 0 %, Hill slope 5.381, Maximum measured 73.735 %, Maximum response 100 %, Minimum measured 0.486 %, R squared 0.994): > 25 µM

Clc1cc(CNc2ccc3c(c2)CNC3)c2cn[nH]c2c1
EC50 ([1]; Dengue virus, Vero C1008): 3.18 µM
EC90 ([1]; Dengue virus, Vero C1008, Baseline response 0 %, Hill slope -0.438, Maximum measured 74.942 %, Maximum response 100 %, Minimum measured 39.794 %, R squared 0.558): > 12.5 µM
EC50 ([2]; Vero C1008): 17.9 µM
EC90 ([2]; Vero C1008, Baseline response 0 %, Hill slope 3.353, Maximum measured 76.866 %, Maximum response 100 %, Minimum measured 0.884 %, R squared 0.96): > 25 µM

COC(=O)c1cc(Br)cc2c(Cc3ccc(-c4nnn[nH]4)cc3)c[nH]c12
EC50 ([1]; Dengue virus, Vero C1008): > 50 µM
EC90 ([1]; Dengue virus, Vero C1008, Maximum measured 157.502 %, Minimum measured 51.504 %): > 50 µM
EC50 ([2]; Vero C1008): > 50 µM
EC90 ([2]; Vero C1008, Baseline response 0 %, Hill slope 0.557, Maximum measured 36.25 %, Maximum response 100 %, Minimum measured -2.518 %, R squared 0.117): > 50 µM

CN(c1ccc2c(c1)CNC2)[C@H](C(=O)NCC(F)F)c1cc(Cl)cc(C2CC2)c1
EC50 ([1]; Dengue virus, Vero C1008): > 3.12 µM
EC90 ([1]; Dengue virus, Vero C1008, Baseline response 0 %, Hill slope -0.632, Maximum measured 86.584 %, Maximum response 100 %, Minimum measured 48.476 %, R squared 0.311): > 3.12 µM
EC50 ([2]; Vero C1008): 0.859 µM
EC90 ([2]; Vero C1008, Baseline response 0 %, EC90 CI (lower) 0.179 uM, EC90 CI (upper) 7.248 uM, Hill slope 7.833, Maximum measured 121.708 %, Maximum response 100 %, Minimum measured 8.623 %, R squared 0.915): 1.14 µM

O=C1Cc2c(cccc2C(=O)Nc2ccc3c(c2)CCNCC3)N1
EC50 ([1]; Dengue virus, Vero C1008): > 50 µM
EC90 ([1]; Dengue virus, Vero C1008, Maximum measured 144.677 %, Minimum measured 92.434 %): > 50 µM
EC50 ([2]; Vero C1008): > 50 µM
EC90 ([2]; Vero C1008, Maximum measured 3.486 %, Minimum measured -0.899 %): > 50 µM

O=C(Nc1cnc2c(c1)CNC2)c1cc(F)cc2[nH]ncc12
EC50 ([1]; Dengue virus, Vero C1008): > 50 µM
EC90 ([1]; Dengue virus, Vero C1008, Maximum measured 142.482 %, Minimum measured 85.178 %): > 50 µM
EC50 ([2]; Vero C1008): > 50 µM
EC90 ([2]; Vero C1008, Baseline response 0 %, Hill slope 2.313, Maximum measured 10.311 %, Maximum response 100 %, Minimum measured -0.319 %, R squared 0.353): > 50 µM

O=C(NCC(F)F)[C@H](Nc1cc2c(cc1Br)CNC2)c1cc(Cl)cc(C2CC2)c1
EC50 ([1]; Dengue virus, Vero C1008): > 50 µM
EC90 ([1]; Dengue virus, Vero C1008, Maximum measured 177.59 %, Minimum measured 74.788 %): > 50 µM
EC50 ([2]; Vero C1008): 0.807 µM
EC90 ([2]; Vero C1008, Baseline response 0 %, Hill slope 18.882, Maximum measured 131.702 %, Maximum response 100 %, Minimum measured 12.911 %, R squared 0.859): 0.907 µM

O=C(Nc1ccc2c(c1)CN[C@H]2CC1CC1)c1cc(F)cc2[nH]ncc12
EC50 ([1]; Dengue virus, Vero C1008): 1.03 µM
EC50 ([2]; Vero C1008): 1.64 µM
EC90 ([2]; Vero C1008, Baseline response 0 %, Hill slope 24.148, Maximum measured 124.993 %, Maximum response 100 %, Minimum measured 2.983 %, R squared 0.936): 1.79 µM

O=C1Nc2ccc(C(=O)Nc3ccc4c(c3)CNC4)cc2C1=O
EC50 ([1]; Dengue virus, Vero C1008): > 50 µM
EC90 ([1]; Dengue virus, Vero C1008, Maximum measured 138.129 %, Minimum measured 92.792 %): > 50 µM
EC50 ([2]; Vero C1008): > 50 µM
EC90 ([2]; Vero C1008, Baseline response 0 %, Hill slope 1.301, Maximum measured 24.355 %, Maximum response 100 %, Minimum measured -0.531 %, R squared 0.91): > 50 µM

O=C(Nc1cc(Cl)cc(-c2ccc3[nH]c(C(=O)O)cc3c2)c1)OCc1ccccc1
EC90 ([1]; Baseline response 0 %, EC90 CI (lower) 8.977 uM, EC90 CI (upper) 21.139 uM, Hill slope -3.716, Maximum measured 111.991 %, Maximum response 100 %, Minimum measured 0.586 %, R squared 0.931): 45 µM
EC90 ([1]; Baseline response 0 %, Hill slope -1.036, Maximum measured 105.577 %, Maximum response 100 %, Minimum measured 51.847 %, R squared 0.535): > 12.5 µM
EC50 ([1]; Dengue virus, Vero C1008): 24.9 µM
EC50 ([1]; vero c1008): > 12.5 µM
EC50 ([2]; Vero C1008): > 25 µM
EC90 ([2]; Vero C1008, Baseline response 0 %, Hill slope 14.672, Maximum measured 32.342 %, Maximum response 100 %, Minimum measured -3.566 %, R squared 0.926): > 25 µM

CC(C)(C)OC(=O)N1Cc2ccc(N[C@H](C(=O)O)c3cc(Cl)cc4[nH]ncc34)cc2C1
EC50 ([1]; Dengue virus, Vero C1008): > 50 µM
EC90 ([1]; Dengue virus, Vero C1008, Maximum measured 176.94 %, Minimum measured 116.898 %): > 50 µM
EC50 ([2]; Vero C1008): > 50 µM
EC90 ([2]; Vero C1008, Baseline response 0 %, Hill slope -0.446, Maximum measured 2.879 %, Maximum response 100 %, Minimum measured -1.465 %, R squared 0.442): > 50 µM

N#CCc1cc(NC(=O)c2cc(F)cc3[nH]ncc23)cc2c1CNC2
EC50 ([1]; Dengue virus, Vero C1008): > 50 µM
EC90 ([1]; Dengue virus, Vero C1008, Maximum measured 146.108 %, Minimum measured 103.208 %): > 50 µM
EC50 ([2]; Vero C1008): 41.5 µM
EC90 ([2]; Vero C1008, Baseline response 0 %, Hill slope 1.989, Maximum measured 59.393 %, Maximum response 100 %, Minimum measured -2.191 %, R squared 0.98): > 50 µM

NCc1ccc(-c2csc3cc(C(=O)Nc4ccc5c(c4)CNC5)ccc23)cc1
EC50 ([1]; Dengue virus, Vero C1008): > 6.25 µM
EC90 ([1]; Dengue virus, Vero C1008, Baseline response 0 %, Hill slope -0.794, Maximum measured 120.176 %, Maximum response 100 %, Minimum measured 78.099 %, R squared 0.152): > 6.25 µM
EC50 ([2]; Vero C1008): > 50 µM
EC90 ([2]; Vero C1008, Maximum measured 6.518 %, Minimum measured 2.745 %): > 50 µM

O=C(NCC(F)F)[C@H](Nc1cnc2c(c1)CNC2)c1cc(Cl)cc(C2CC2)c1
EC50 ([1]; Dengue virus, Vero C1008): > 50 µM
EC90 ([1]; Dengue virus, Vero C1008, Maximum measured 147.541 %, Minimum measured 99.767 %): > 50 µM
EC50 ([2]; Vero C1008): 0.828 µM
EC90 ([2]; Vero C1008, Baseline response 0 %, EC90 CI (lower) 1.299 uM, EC90 CI (upper) 2.383 uM, Hill slope 2.915, Maximum measured 110.454 %, Maximum response 100 %, Minimum measured 12.588 %, R squared 0.958): 1.76 µM

NCc1csc2cc(C(=O)Nc3ccc4c(c3)CNC4)ccc12
EC50 ([1]; Dengue virus, Vero C1008): > 50 µM
EC90 ([1]; Dengue virus, Vero C1008, Maximum measured 124.572 %, Minimum measured 93.265 %): > 50 µM
EC50 ([2]; Vero C1008): > 50 µM
EC90 ([2]; Vero C1008, Baseline response 0 %, Hill slope 0.999, Maximum measured 5.799 %, Maximum response 100 %, Minimum measured -1.302 %, R squared 0.306): > 50 µM

O=C(Nc1ccc2c(c1)CNC2)c1cccc2c(C3CNC3)n[nH]c12
EC50 ([1]; Dengue virus, Vero C1008): > 50 µM
EC90 ([1]; Dengue virus, Vero C1008, Maximum measured 103.764 %, Minimum measured 75.286 %): > 50 µM
EC50 ([2]; Vero C1008): 9.06 µM
EC90 ([2]; Vero C1008, Baseline response 0 %, EC90 CI (lower) 13.229 uM, EC90 CI (upper) 28.268 uM, Hill slope 2.896, Maximum measured 113.87 %, Maximum response 100 %, Minimum measured -0.433 %, R squared 0.955): 19.3 µM

O=C(Nc1ccc2c(c1)CNC2)c1cc(Br)cc2c1nc1n2CCCC1
EC50 ([1]; Dengue virus, Vero C1008): > 50 µM
EC90 ([1]; Dengue virus, Vero C1008, Maximum measured 143.517 %, Minimum measured 80.126 %): > 50 µM
EC50 ([2]; Vero C1008): > 50 µM
EC90 ([2]; Vero C1008, Maximum measured -3.355 %, Minimum measured -6.068 %): > 50 µM

C[C@H]1C(=O)Nc2ccc(C(=O)Nc3ccc4c(c3)CNC4)cc21
EC50 ([1]; Dengue virus, Vero C1008): > 50 µM
EC90 ([1]; Dengue virus, Vero C1008, Maximum measured 179.475 %, Minimum measured 83.637 %): > 50 µM
EC50 ([2]; Vero C1008): > 50 µM
EC90 ([2]; Vero C1008, Maximum measured 0.465 %, Minimum measured -1.56 %): > 50 µM

— ChEMBL document CHEMBL5661943, “ASAP - In vitro antiviral effect” (2024)
